13 molecules from US20060229254A1, “Compounds having prolyl oligopeptidase inhibitory activity” (priority 2003, published 2006) can be followed below.

The target of the experiment is T1, pig brain prolyl oligopeptidase (Sus scrofa, UniProt P23687).
T1 construct: The brains were homogenized with a glass-teflon homogenisator in 3 volumes (w/v) of ice-cold 0.1 M sodium-potassium phosphate buffer; from tissue; host or cells: pig brain (whole brain excluding cerebellum and most of the brain stem), 10000 g supernatant of the homogenate
T1 sequence (P23687 whole entry): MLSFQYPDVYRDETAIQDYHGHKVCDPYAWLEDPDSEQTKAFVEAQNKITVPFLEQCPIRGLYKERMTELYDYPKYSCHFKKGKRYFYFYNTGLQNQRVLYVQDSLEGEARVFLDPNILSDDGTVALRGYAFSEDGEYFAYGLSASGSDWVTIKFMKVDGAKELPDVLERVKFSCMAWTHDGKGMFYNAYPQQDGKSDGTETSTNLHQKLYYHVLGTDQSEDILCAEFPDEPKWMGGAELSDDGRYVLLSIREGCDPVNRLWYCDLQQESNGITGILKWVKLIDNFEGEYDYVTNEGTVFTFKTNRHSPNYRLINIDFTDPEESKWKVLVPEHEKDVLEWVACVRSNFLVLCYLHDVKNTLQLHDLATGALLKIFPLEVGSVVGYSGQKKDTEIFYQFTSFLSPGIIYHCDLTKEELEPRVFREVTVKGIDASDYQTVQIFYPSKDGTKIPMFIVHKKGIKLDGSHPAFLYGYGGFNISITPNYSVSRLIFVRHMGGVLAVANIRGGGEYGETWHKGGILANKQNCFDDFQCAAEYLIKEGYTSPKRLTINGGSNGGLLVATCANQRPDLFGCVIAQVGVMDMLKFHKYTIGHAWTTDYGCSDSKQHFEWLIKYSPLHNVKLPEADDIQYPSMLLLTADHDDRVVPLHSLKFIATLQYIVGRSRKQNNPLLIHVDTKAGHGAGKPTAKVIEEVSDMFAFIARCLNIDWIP
Briefly: Inhibition of pig brain prolyl oligopeptidase (Suc-Gly-Pro-AMC fluorometric microplate assay). The experiment is classed as biochemical. Particulars: pig brain supernatant, Suc-Gly-Pro-AMC substrate, 30 min preincubation, 30° C., pH 7.0. How it is done: The inhibitory effect of the novel compounds on POP activity of pig brain was determined with a method based on that described by Toide et al. (Toide, K, Iwamoto, Y., Fujiwara. T., Abe, H., J. Pharmacol. Exp. Ther., 1995, 274, 1370-1378) for the rat enzyme.
The whole pig brains, excluding cerebellum and most of the brain stem, of three pigs were placed in liquid nitrogen within 30 min from killing and stored at −80° C. until homogenized. The brains were homogenized with a glass-teflon homogenisator in 3 volumes (w/v) of ice-cold 0.1 M sodium-potassium phosphate buffer (pH 7.0) and the homogenates were centrifuged for 20 min at 4° C. at 10000 g. The supernatants were collected, pooled and stored in small aliquots at −80° C. until used. The supernatant was thawn in ice just before activity assay and diluted in a ratio 1:2 with homogenisation buffer (=enzyme preparation).
In the microplate assay procedure, 10 μl of enzyme preparation was preincubated with 460 μl of 0.1 M sodium-potassium phosphate buffer (pH 7.0) and 5 μl of a solution of novel compound dissolved in DMSO and diluted with 0.1 M sodium-potassium phosphate buffer at 30° C. for 30 min. The controls contained 10 μl enzyme preparation and 465 μl of 0.1 M sodium-potassium phosphate buffer (pH 7.0). The reaction was initiated by adding 25 μl of 4 mM Suc-Gly-Pro-AMC (AMC: 7-amido-4-methylcoumarin) dissolved in 0.1 M sodium-potassium phosphate buffer (pH 7.0), and the mixture was incubated at 30° C. for 60 min. The reaction was terminated by adding 500 μl of 1 M sodium acetate buffer (pH 4.2).
Formation of 7-amido-4-methylcoumarin was determined fluorometrically with microplate fluorescence reader (excitation at 360 nm and emission at 460 nm). The final concentration of novel compounds in the assay mixture varied from 10^−12 M to 10^−4 M.
The prolyl oligopeptidase activity was calculated with the following formula in the presence of various concentrations of novel compounds. To reveal the inhibitory potency of the novel compound, activities (% of control) were plotted against the log concentration of the compound, and the IC50 value was determined by non-linear regression utilizing GraphPad Prism software. Activity (% of control)=a/b×100, where
a=fluorescence intensity in the presence of a novel compound
b=fluorescence intensity without a novel compound (control)
As to “4-Phenylbutanoyl-5(R)-methyl-L-prolyl-pyrrolidine [Example 7]”, the IC50 (in general, the concentration that inhibits the measured activity by half) is 0.71 nM.

In the case of “4-Phenylbutanoyl-5(S)-methyl-L-prolyl-pyrrolidine [Example 14]”, the midpoint of inhibition, the IC50, lay at 1.4 nM.

For the molecule `O=C(NCc1ccccc1)C1=CCCC1C(=O)N1CCC[C@H]1C(=O)CO` (single isomer, unassigned) [Example 2], 0.32 nM corresponded to half-maximal inhibition (IC50).

`N#C[C@@H]1CCCN1C(=O)C1CCC=C1C(=O)NCc1ccccc1` (stereo partly drawn) [Example 1, 2-(Benzylcarbamoyl)-cyclopent-2-ene-carboxylic acid 2(S)-cyanopyrrolidine amide] returned an IC50 of 0.38 nM.

For `O=C(NCc1ccccc1)C1=CCCC1C(=O)N1CCCC1` (stereo not shown) [Example 3, 2-Benzylcarbamoyl-cyclopent-2-ene-carboxylic acid pyrrolidine amide], the IC50 stood at 9 nM.

With `O=C(Cc1ccccc1)C1=CCCC1C(=O)N1CCCC1` (stereo not shown) [Example 4, 2-Benzylcarbonyl-cyclopent-2-ene-carboxylic acid pyrrolidine amide], the midpoint of inhibition, the IC50, lay at 7.7 nM.

On to `N#C[C@@H]1CCCN1C(=O)C1CCC=C1C(=O)CCCc1ccccc1` (stereo partly drawn) [Example 5, 2-(4-Phenylbutanoyl)-cyclopent-2-ene-carboxylic acid 2(S)-cyanopyrrolidine amide], for which the IC50 stood at 0.21 nM.

The molecule `C[C@@H]1CC[C@@H](C(=O)N2CCC[C@H]2C(=O)CO)N1C(=O)CCCc1ccccc1` [Example 8, 4-Phenylbutanoyl-5(R)-methyl-L-prolyl-2(S)-(hydroxyacetyl)-pyrrolidine] yielded an IC50 of 0.15 nM.

With `CC(C)(C)OC(=O)N1[C@H](C(=O)N2CCCC2)CC[C@@H]1C(C)(C)C` [Example 9, Boc-5(R)-tert-butyl-L-prolyl-pyrrolidine], inhibition was half-maximal at 2.2 nM (IC50).

The molecule `CC(C)(C)[C@H]1CC[C@@H](C(=O)N2CCCC2)N1C(=O)CCCc1ccccc1` [Example 11, 4-Phenylbutanoyl-5(R)-tert-butyl-L-prolyl-pyrrolidine] gave an IC50 of 1.6 nM.

Consider `CC(C)(C)[C@H]1CC[C@@H](C(=O)N2CCC[C@H]2C(=O)CO)N1C(=O)CCCc1ccccc1` [Example 12, 4-Phenylbutanoyl-5(R)-tert-butyl-L-prolyl-2(S)-(hydroxyacetyl)-pyrrolidine], for which the IC50 was 0.24 nM.

In turn, `C[C@H]1CC[C@@H](C(=O)N2CCC[C@H]2C(=O)CO)N1C(=O)CCCc1ccccc1` [Example 15, 4-Phenylbutanoyl-5(S)-methyl-L-prolyl-2(S)-(hydroxyacetyl)-pyrrolidine] returned an IC50 of 0.17 nM.

In the case of `CC(C)(C)OC(=O)N1[C@H](C(C)(C)C)CC[C@H]1C(=O)N1CCCC1` [Example 16, Boc-5(S)-tert-butyl-L-prolyl-pyrrolidine], half-maximal inhibition (IC50) was put at 9.2 nM.
